Measured values reported in patent US10597388B2, “Pyridazinone herbicides” (FMC CORPORATION, priority 2014, dated 2020).

Legend:
Experiment in all cases: Test D controlled growth environment herbicide test, pre- and postemergence
Assay type in all cases: in vivo
[1] = system: bluegrass (annual bluegrass, Poa annua)
In short: (§1)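 Species sown in silt loam and sprayed preemergence, or grown in peat-based medium to 2–18 cm (1- to 4-leaf stage) and sprayed postemergence, with compounds in non-phytotoxic solvent plus surfactant. Visual injury scored versus controls after 14–21 d in a controlled environment, 0 (no effect) to 100 (complete control).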

[2] = system: chamomile (scentless chamomile, Matricaria inodora)
In short: as §1

[3] = system: windgrass (Apera spica-venti)
In short: as §1

[4] = system: field poppy (Papaver rhoeas)
In short: as §1

[5] = system: kochia (Kochia scoparia)
In short: as §1

[6] = system: lambsquarters (Chenopodium album)
In short: as §1

[7] = system: buckwheat, wild (wild buckwheat, Polygonum convolvulus)
In short: as §1

[8] = system: canarygrass (Phalaris minor)
In short: as §1

[9] = system: barley, spring (spring barley, Hordeum vulgare)
In short: as §1

[10] = system: radish, wild (wild radish, Raphanus raphanistrum)
In short: as §1

[11] = system: pigweed (Amaranthus retroflexus)
In short: as §1

[12] = system: field violet (Viola arvensis)
In short: as §1

[13] = system: galium (catchweed bedstraw, Galium aparine)
In short: as §1

[14] = system: barley, winter (winter barley, Hordeum vulgare)
In short: as §1

[15] = Postemergence, 31 g ai/ha, scale 0 to 100 (0 no effect, 100 complete control)
[16] = Postemergence, 125 g ai/ha, visual rating on scale 0 (no effect) to 100 (complete control), 14 to 21 d
[17] = Postemergence, 250 g ai/ha, scale 0 to 100 (0 no effect, 100 complete control)
[18] = Preemergence, 62 g ai/ha, scale 0 to 100 (0 no effect, 100 complete control)
[19] = Preemergence, 125 g ai/ha, scale 0 to 100 (0 no effect, 100 complete control)
[20] = Preemergence, 250 g ai/ha, scale 0 to 100, 0 no effect, 100 complete control
[21] = postemergence, 62 g ai/ha, scale 0 to 100, 0 no effect, 100 complete control

`Cc1nn(C)c(=O)c(-c2ccc(F)c3ccccc23)c1O` [Compound 41] was tested, and the “Bluegrass plant response rating” value [1, 15] was 15, the “Plant response rating, Bluegrass” value [1, 16] was 25 and the “Plant response rating, Bluegrass” value [1, 17] was 35. The “Plant response rating (scale of 0 to 100), Bluegrass” value ([1]; Preemergence, 31 g ai/ha) was 70, the “Plant response rating, Bluegrass” value [1, 18] was 75 and the “Plant response rating, Bluegrass” value [1, 19] was 80. For the same compound, the “Bluegrass plant response rating” value [1, 20] was 90, the “Plant response rating, Bluegrass” value [1, 21] was 30 and the “Chamomile plant response rating” value [2, 15] was 75. The “Plant response rating, Chamomile” value [2, 16] was 80, the “Plant response rating, Chamomile” value [2, 17] was 100 and the “Plant response rating, Chamomile” value [2, 21] was 75. For the same compound, the “Windgrass plant response rating” value [3, 15] was 40, the “Plant response rating, Windgrass” value [3, 16] was 60 and the “Plant response rating, Windgrass” value [3, 17] was 75. For the same compound, the “Plant response rating (scale of 0 to 100), Windgrass” value ([3]; Preemergence, 31 g ai/ha) was 70, the “Plant response rating, Windgrass” value [3, 18] was 75 and the “Plant response rating, Windgrass” value [3, 19] was 80. The “Plant response rating, Windgrass” value [3, 20] was 95, the “Plant response rating, Windgrass” value [3, 21] was 55 and the “Field Poppy plant response rating” value [4, 15] was 55. For the same compound, the “Plant response rating, Field Poppy” value [4, 16] was 75, the “Plant response rating, Field Poppy” value [4, 17] was 95 and the “Plant response rating (scale of 0 to 100), Field Poppy” value ([4]; Preemergence, 31 g ai/ha) was 95. The “Plant response rating, Field Poppy” value [4, 18] was 95, the “Plant response rating, Field Poppy” value [4, 20] was 95 and the “Plant response rating, Field Poppy” value [4, 21] was 80. The “Kochia plant response rating” value [5, 15] was 85, the “Plant response rating, Kochia” value [5, 16] was 85 and the “Plant response rating, Kochia” value [5, 17] was 100. For the same compound, the “Plant response rating (scale of 0 to 100), Kochia” value ([5]; Preemergence, 31 g ai/ha) was 80, the “Plant response rating, Kochia” value [5, 18] was 75 and the “Plant response rating, Kochia” value [5, 19] was 80. The “Plant response rating, Kochia” value [5, 20] was 100, the “Plant response rating, Kochia” value [5, 21] was 95 and the “Lambsquarters plant response rating” value [6, 15] was 70. For the same compound, the “Plant response rating, Lambsquarters” value [6, 16] was 75, the “Plant response rating, Lambsquarters” value [6, 17] was 85 and the “Plant response rating (scale of 0 to 100), Lambsquarters” value ([6]; Preemergence, 31 g ai/ha) was 25. For the same compound, the “Plant response rating, Lambsquarters” value [6, 18] was 100, the “Plant response rating, Lambsquarters” value [6, 19] was 100 and the “Plant response rating, Lambsquarters” value [6, 20] was 100. For the same compound, the “Plant response rating, Lambsquarters” value [6, 21] was 65, the “Buckwheat, Wild plant response rating” value [7, 15] was 80 and the “Plant response rating, Buckwheat, Wild” value [7, 16] was 95. For the same compound, the “Plant response rating, Buckwheat, Wild” value [7, 17] was 100, the “Plant response rating (scale of 0 to 100), Buckwheat, Wild” value ([7]; Preemergence, 31 g ai/ha) was 35 and the “Plant response rating, Buckwheat, Wild” value [7, 18] was 55. The “Plant response rating, Buckwheat, Wild” value [7, 19] was 65, the “Plant response rating, Buckwheat, Wild” value [7, 20] was 75 and the “Plant response rating, Buckwheat, Wild” value [7, 21] was 90. For the same compound, the “Canarygrass plant response rating” value [8, 15] was 55, the “Plant response rating, Canarygrass” value [8, 16] was 80 and the “Plant response rating, Canarygrass” value [8, 17] was 80. The “Plant response rating (scale of 0 to 100), Canarygrass” value ([8]; Preemergence, 31 g ai/ha) was 90, the “Plant response rating, Canarygrass” value [8, 18] was 90 and the “Plant response rating, Canarygrass” value [8, 19] was 90. The “Plant response rating, Canarygrass” value [8, 20] was 95, the “Plant response rating, Canarygrass” value [8, 21] was 70 and the “Plant response rating, Barley, Spring” value [9, 15] was 0. For the same compound, the “Plant response rating, Barley, Spring” value [9, 16] was 10, the “Plant response rating, Barley, Spring” value [9, 17] was 20 and the “Plant response rating (scale of 0 to 100), Barley, Spring” value ([9]; Preemergence, 31 g ai/ha) was 0. For the same compound, the “Plant response rating, Barley, Spring” value [9, 18] was 0, the “Plant response rating, Barley, Spring” value [9, 19] was 30 and the “Barley, Spring plant response rating” value [9, 20] was 60. The “Plant response rating, Barley, Spring” value [9, 21] was 5, the “Radish, Wild plant response rating” value [10, 15] was 90 and the “Plant response rating, Radish, Wild” value [10, 16] was 90. For the same compound, the “Plant response rating, Radish, Wild” value [10, 17] was 95, the “Plant response rating (scale of 0 to 100), Radish, Wild” value ([10]; Preemergence, 31 g ai/ha) was 25 and the “Plant response rating, Radish, Wild” value [10, 18] was 85. The “Plant response rating, Radish, Wild” value [10, 19] was 95, the “Plant response rating, Radish, Wild” value [10, 20] was 100 and the “Plant response rating, Radish, Wild” value [10, 21] was 80. For the same compound, the “Pigweed plant response rating” value [11, 15] was 75, the “Plant response rating, Pigweed” value [11, 16] was 80 and the “Plant response rating, Pigweed” value [11, 17] was 85. For the same compound, the “Plant response rating (scale of 0 to 100), Pigweed” value ([11]; Preemergence, 31 g ai/ha) was 25, the “Plant response rating, Pigweed” value [11, 18] was 75 and the “Plant response rating, Pigweed” value [11, 19] was 100. The “Plant response rating, Pigweed” value [11, 20] was 100, the “Plant response rating, Pigweed” value [11, 21] was 80 and the “Field Violet plant response rating” value [12, 15] was 100. For the same compound, the “Plant response rating, Field Violet” value [12, 16] was 90, the “Plant response rating, Field Violet” value [12, 17] was 100 and the “Plant response rating (scale of 0 to 100), Field Violet” value ([12]; Preemergence, 31 g ai/ha) was 95. The “Plant response rating, Field Violet” value [12, 18] was 90, the “Plant response rating, Field Violet” value [12, 19] was 100 and the “Plant response rating, Field Violet” value [12, 20] was 100. The “Plant response rating, Field Violet” value [12, 21] was 90, the “Galium plant response rating” value [13, 15] was 100 and the “Plant response rating, Galium” value [13, 16] was 100. The “Plant response rating, Galium” value [13, 17] was 100, the “Plant response rating (scale of 0 to 100), Galium” value ([13]; Preemergence, 31 g ai/ha) was 75 and the “Plant response rating, Galium” value [13, 18] was 85. The “Plant response rating, Galium” value [13, 19] was 95, the “Plant response rating, Galium” value [13, 20] was 100 and the “Plant response rating, Galium” value [13, 21] was 100. The “Plant response rating, Barley, Winter” value [14, 15] was 0, the “Plant response rating, Barley, Winter” value [14, 16] was 5 and the “Plant response rating, Barley, Winter” value [14, 17] was 35. For the same compound, the “Plant response rating (scale of 0 to 100), Barley, Winter” value ([14]; Preemergence, 31 g ai/ha) was 0, the “Plant response rating, Barley, Winter” value [14, 18] was 20 and the “Plant response rating, Barley, Winter” value [14, 19] was 25. The “Barley, Winter plant response rating” value [14, 20] was 30 and the “Plant response rating, Barley, Winter” value [14, 21] was 5.
